± gives the standard deviation of the averaged measurements.
What was measured:
Conditions in all cases: 72 h
HepG2 [1] = assay: cell viability relative to DMSO; higher = less toxic
U2OS [2] = assay: as above
Vero E6 [3] = assay: as above
Caco-2 [4] = assay: as above
Calu-3 [5] = assay: as above
HepG2 [6] = assay: drug sensitivity score (DSS) for viability; higher = more toxic; extreme values may be limits of the assay
U2OS [7] = assay: as above
Vero E6 [8] = assay: as above
Caco-2 [9] = assay: as above
Calu-3 [10] = assay: as above
HepG2 [11] = assay: relative viability EC50 (midpoint between 100% and the lowest measured viability); higher = less toxic
U2OS [12] = assay: as above
Vero E6 [13] = assay: as above
Caco-2 [14] = assay: as above
Calu-3 [15] = assay: as above

Structure (SMILES) | cell viability (HepG2 [1]; 1 nM) | cell viability (HepG2 [1]; 10 nM) | cell viability (HepG2 [1]; 100 nM) | cell viability (HepG2 [1]; 1000 nM) | cell viability (HepG2 [1]; 10000 nM) | cell viability (U2OS [2]; 1 nM) | cell viability (U2OS [2]; 10 nM) | cell viability (U2OS [2]; 100 nM) | cell viability (U2OS [2]; 1000 nM) | cell viability (U2OS [2]; 10000 nM) | cell viability (Vero E6 [3]; 1 nM) | cell viability (Vero E6 [3]; 10 nM) | cell viability (Vero E6 [3]; 100 nM) | cell viability (Vero E6 [3]; 1000 nM) | cell viability (Vero E6 [3]; 10000 nM) | cell viability (Caco-2 [4]; 1 nM) | cell viability (Caco-2 [4]; 10 nM) | cell viability (Caco-2 [4]; 100 nM) | cell viability (Caco-2 [4]; 1000 nM) | cell viability (Caco-2 [4]; 10000 nM) | cell viability (Calu-3 [5]; 1 nM) | cell viability (Calu-3 [5]; 10 nM) | cell viability (Calu-3 [5]; 100 nM) | cell viability (Calu-3 [5]; 1000 nM) | cell viability (Calu-3 [5]; 10000 nM) | drug sensitivity score (HepG2 [6]) | drug sensitivity score (U2OS [7]) | drug sensitivity score (Vero E6 [8]) | drug sensitivity score (Caco-2 [9]) | drug sensitivity score (Calu-3 [10]) | relative viability EC50 (HepG2 [11]) | relative viability EC50 (U2OS [12]) | relative viability EC50 (Vero E6 [13]) | relative viability EC50 (Caco-2 [14]) | relative viability EC50 (Calu-3 [15])
O=C(Nc1cc(C(F)(F)F)cc(C(F)(F)F)c1)c1cnc(Cl)nc1C(F)(F)F | 90.4% | 96.7% | 99.8% | 97% | 92.6% | 100% | 100% | 102% | 99.9% | 94.9% | 96% | 97.5% | 97.1% | 97.2% | 102% | 102% | 94.3% | 102% | 103% | 97.7% | 98.3% | 109% | 101% | 104% | 99.2% | 0 | 0 | 0 | 0 | 0 | > 10 µM | > 10 µM | > 10 µM | > 10 µM | > 10 µM
COC(=O)C1=C(C)NC(C)=C([N+](=O)[O-])[C@@H]1c1ccccc1C(F)(F)F (racemic) [BAY-K-8644-(+/-)] | 99.8 ± 1.3% | 93.6 ± 3.2% | 95.2 ± 1.8% | 104 ± 10% | 94.25 ± 0.21% | 95.9 ± 0.28% | 95.9 ± 4.4% | 98.8 ± 4.9% | 97.9 ± 4.7% | 96.2 ± 0.85% | 95 ± 1.1% | 97.9 ± 1.4% | 99.4 ± 4.5% | 100 ± 2% | 101 ± 5.7% | 89.8 ± 1.6% | 94.5 ± 2.3% | 94.3 ± 1.8% | 106 ± 4.2% | 93.4 ± 3.4% | 101 ± 8.4% | 99.4 ± 2.1% | 99.9 ± 7.6% | 100 ± 6.7% | 98.5 ± 3.2% | 0 | 0 | 0 | 0 | 0 | > 10 µM | > 10 µM | > 10 µM | > 10 µM | > 10 µM
CCOC(=O)C1=C(C)NC(C)=C(C(=O)OC)[C@@H]1c1cccc([N+](=O)[O-])c1 (racemic) [nitrendipine] | 108% | 102% | 89% | 104% | 92.7% | 98.5% | 96.9% | 98.7% | 95.4% | 95.6% | 102% | 106% | 98.5% | 105% | 103% | 81.3% | 92.4% | 96.2% | 90.2% | 82.9% | 89.5% | 92.3% | 105% | 86.5% | 87.1% | 0 | 0 | 0 | 0 | 0 | > 10 µM | > 10 µM | > 10 µM | > 10 µM | > 10 µM
N#Cc1ncccn1 [2-cyanopyrimidine] | 102% | 100% | 93.7% | 93.6% | 111% | 100% | 104% | 96.7% | 99.6% | 97.9% | 93.8% | 104% | 97% | 106% | 94.6% | 98.5% | 93.7% | 101% | 99.3% | 102% | 102% | 99.3% | 101% | 91.6% | 96.9% | 0 | 0 | 0 | 0 | 0 | > 10 µM | > 10 µM | > 10 µM | > 10 µM | > 10 µM
C=CCN1CCN(c2nc3ccccc3nc2C#N)CC1 [3-AQC] | 94% | 104% | 96.6% | 97.5% | 94.2% | 100% | 101% | 101% | 97.9% | 97.1% | 94.9% | 102% | 92.6% | 104% | 108% | 102% | 99.9% | 103% | 101% | 95.2% | 94.7% | 98% | 101% | 103% | 98.1% | 0 | 0 | 0 | 0 | 0 | > 10 µM | > 10 µM | > 10 µM | > 10 µM | > 10 µM
Cc1ccc(C[N+](C)(C)C)o1 [5-methylfurmethiodide] | 104% | 108% | 93.8% | 103% | 90.2% | 101% | 99.7% | 102% | 98.7% | 103% | 104% | 103% | 97.5% | 107% | 99.9% | 99.1% | 105% | 103% | 96.3% | 108% | 108% | 103% | 93.9% | 100% | 101% | 0 | 0 | 0 | 0 | 0 | > 10 µM | > 10 µM | > 10 µM | > 10 µM | > 10 µM
[N-]=[N+]=CC(=O)CC[C@H](N)C(=O)O [6-diazo-5-oxo-L-norleucine] | 97% | 105% | 98.8% | 97.2% | 112% | 104% | 102% | 104% | 98.3% | 104% | 94.2% | 95.8% | 86.8% | 95.6% | 103% | 95.4% | 90% | 97.8% | 95.8% | 92.7% | 102% | 90.6% | 96.4% | 95.2% | 98.1% | 0 | 0 | 0 | 0 | 0 | > 10 µM | > 10 µM | > 10 µM | > 10 µM | > 10 µM
CCCCC/C=C\C/C=C\C/C=C\C/C=C\CCCC(=O)Nc1ccc(O)cc1 [AM-404] | 110% | 104% | 93.9% | 107% | 87.6% | 96.9% | 95.2% | 100% | 93.8% | 96.3% | 105% | 106% | 92.9% | 102% | 96.5% | 95.3% | 98.2% | 103% | 100% | 95% | 104% | 93.1% | 96.8% | 99.1% | 102% | 0 | 0 | 0 | 0 | 0 | > 10 µM | > 10 µM | > 10 µM | > 10 µM | > 10 µM
COc1ccc2c(OCc3nnc4ccc(-c5ccccc5)nn34)ccnc2c1 [AMG-208] | 99.4% | 99.9% | 101% | 97% | 104% | 104% | 95.5% | 102% | 103% | 99% | 95.6% | 92.1% | 93.9% | 104% | 91.2% | 99.8% | 95.9% | 104% | 100% | 91% | 108% | 99.8% | 97.3% | 92.2% | 97% | 0 | 0 | 0 | 0 | 0 | > 10 µM | > 10 µM | > 10 µM | > 10 µM | > 10 µM
O=C(Nc1ccccc1C(=O)NC1CCCCNC1=O)c1cc2ccccc2s1 (stereo not drawn) [ANA-12] | 104% | 93.1% | 100% | 91.4% | 98.4% | 97.8% | 101% | 91.5% | 104% | 96.7% | 100% | 99.3% | 99.8% | 89.5% | 104% | 90.9% | 97.4% | 96.1% | 106% | 96.4% | 99.6% | 95.3% | 101% | 94.7% | 87.7% | 0 | 0 | 0 | 0 | 0.3 | > 10 µM | > 10 µM | > 10 µM | > 10 µM | > 10 µM
Cc1ccc2nc(N)[nH]c(=O)c2c1Sc1ccncc1 [nolatrexed] | 107% | 99.5% | 97.1% | 101% | 71.6% | 94.3% | 99.3% | 92.4% | 101% | 94.3% | 103% | 97.2% | 99.8% | 98.9% | 83.1% | 98.2% | 98.7% | 101% | 104% | 80.3% | 97.9% | 93.4% | 85.8% | 96.9% | 99.1% | 1.1 | 0 | 0.5 | 0.4 | 0 | – | > 10 µM | > 10 µM | > 10 µM | > 10 µM
Cc1cncc(CN2CCC(=C3c4ccc(Cl)cc4CCc4cccnc43)CC2)c1 [rupatadine] | 112% | 100% | 99.2% | 95.5% | 71.9% | 101% | 91.9% | 99.5% | 95.6% | 90.3% | 99% | 102% | 96.8% | 100% | 102% | 98.3% | 102% | 93.8% | 90.2% | 88.3% | 105% | 97.1% | 99.9% | 109% | 113% | 1.9 | 0 | 0 | 0.7 | 0 | – | > 10 µM | > 10 µM | > 10 µM | > 10 µM

From the supplement of paper PMC13380429
